Assay results taken from patent US9617283B2, “Bicyclic heterocycle compounds and their uses in therapy” (ASTEX THERAPEUTICS LIMITED, priority 2012, dated 2017).
Counter-ions that a name gives are not always drawn. Like-named read-outs stand apart in the source and are kept apart here.

How the values were obtained:
[1] = biological target: T1, BIR3 domain of human XIAP (residues 252-350) (Homo sapiens, UniProt P98170); assay: XIAP in vitro competitive displacement binding assay (fluorescence polarization); settings: 1 h, percent inhibition (PI) at 0.04 μM; read-out: Xiap IC50 or PI μM
T1 construct: BIR3 domain of human XIAP (residues 252-350); His-tag (cleaved yes); made in house; host or cells: Escherichia coli

[2] = tested on: EVSA-T (human breast carcinoma); assay: Anti-proliferative activity, Alamar Blue assay, EVSA-T; format: cell-based
Protocol: Anti-Proliferative Activity
The method is based on the ability of viable cells to reduce resazurin to its fluorescent product resorufin. For each proliferation assay cells are plated onto 96 well plates and allowed to recover for 16 hours prior to the addition of inhibitor compounds (in 0.1% DMSO v/v) for a further 72 hours. […] The anti-proliferative activities of compounds of the invention can be determined by measuring the ability of the compounds to inhibit growth in 3 cancer cell lines: • EVSA-T (human breast carcinoma) DSMZ cat. no.

[3] = Homo sapiens, EVSA-T, 72 h, EVSA-T cell line, 72 hours, Alamar Blue; read-out: EVSA-T prolif
[4] = Homo sapiens, EVSA-T; read-out: EC50 in EVSA-T cell line assays
[5] = EVSA-T cell line, 72 hours, Alamar Blue; dihydrochloride; read-out: EVSA-T prolif

T1 sequence (P98170 252-350): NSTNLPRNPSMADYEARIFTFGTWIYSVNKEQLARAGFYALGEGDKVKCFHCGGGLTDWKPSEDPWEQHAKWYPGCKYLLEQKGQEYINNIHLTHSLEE

| Structure (SMILES) | inhibition at 0.04 µM [1] | EC50 [2, 3] | EC50 [2, 4] | EC50 [2, 5] | EC50 ([2]; Homo sapiens, EVSA-T, read-out: EC50 in EVSA-T cell line assays) |
| --- | --- | --- | --- | --- | --- |
| C[C@@H]1CN(CC(=O)N2CC(C)(C)c3cnc(Cc4ccc(F)cc4)cc32)[C@@H](CN2C[C@H](C)OCC2=O)CN1 (single isomer, unassigned) [Example 18, (6R or 6S)-4-{[(2R,5R)-1-(2-{6-[(4-Fluorophenyl)methyl]-3,3-dimethyl-1H,2H,3H-pyrrolo[3,2-c]pyridin-1-yl}-2-oxoethyl)-5-methylpiperazin-2-yl]methyl}-6-methylmorpholin-3-one L-lactate] | 70% | 3.5 nM | < 1000 nM |  |  |
| C[C@@H]1CN(CC(=O)N2CC(C)(C)c3ncc(Cc4ccc(F)cc4F)cc32)[C@@H](CN2C[C@H](C)OCC2=O)CN1 (single isomer, unassigned) [Example 23, (6R or 6S)-4-{[(2R,5R)-1-(2-{6-[(2,4-Difluorophenyl)methyl]-3,3-dimethyl-1H,2H,3H-pyrrolo[3,2-b]pyridin-1-yl}-2-oxoethyl)-5-methylpiperazin-2-yl]methyl}-6-methylmorpholin-3-one, dihydrochloride] | 64% | 2.8 nM | < 1000 nM |  |  |
| CCC1CN(C[C@H]2CN[C@H](C)CN2CC(=O)N2CC(C)(C)c3cnc(Cc4ccc(F)cc4F)cc32)C(=O)CO1 (single isomer, unassigned) [Example 80, 4-{[(2R,5R)-1-(2-{6-[(2,4-Difluorophenyl)methyl]-3,3-dimethyl-1H,2H,3H-pyrrolo[3,2-c]pyridin-1-yl}-2-oxoethyl)-5-methylpiperazin-2-yl]methyl}-(R or S)-6-ethylmorpholin-3-one dihydrochloride] | 46% | 1.8 nM | < 1000 nM |  |  |
| CCCC(O)c1cnc2c(c1)N(C(=O)CN1C[C@@H](C)NC[C@@H]1CN1Cc3ccccc3C1=O)CC2(C)C (single isomer, unassigned) [Example 90, dihydrochloride] | 54% |  | < 1000 nM | 13 nM |  |
| CCC1CN(C[C@H]2CN[C@H](C)CN2CC(=O)N2CC(C)(C)c3ncc([C@@H](O)c4ccc(F)cc4)cc32)C(=O)CO1 (single isomer, unassigned) [Example 110, (R or S)-6-ethyl-4-{[(2R,5R)-1-(2-{6-[(S)-(4-Fluorophenyl)(hydroxy)methyl]-3,3-dimethyl-1H,2H,3H-pyrrolo[3,2-b]pyridin-1-yl}-2-oxoethyl)-5-methylpiperazin-2-yl]methyl}morpholin-3-one dihydrochloride] | 48% |  |  | 290 nM | < 1000 nM |
| C[C@@H]1CN(CC(=O)N2CC(C)(C)c3ncc(Cc4ccc(F)cc4)cc32)[C@@H](CN2CC(C)(C)CC2=O)CN1 [Example 1, 1-{[(2R,5R)-1-(2-{6-[(4-Fluorophenyl)methyl]-3,3-dimethyl-1H,2H,3H-pyrrolo[3,2-b]pyridin-1-yl}-2-oxoethyl)-5-methylpiperazin-2-yl]methyl}-4,4-dimethylpyrrolidin-2-one dihydrochloride] | 54% | 2.2 nM | < 1000 nM |  |  |
| C[C@@H]1CN(CC(=O)N2CC(C)(C)c3ncc(Cc4ccc(F)cc4)cc32)[C@@H](CN2CCC(C)(C)C2=O)CN1 [Example 4, 1-{[(2R,5R)-1-(2-{6-[(4-Fluorophenyl)methyl]-3,3-dimethyl-1H,2H,3H-pyrrolo[3,2-b]pyridin-1-yl}-2-oxoethyl)-5-methylpiperazin-2-yl]methyl}-3,3-dimethylpyrrolidin-2-one dihydrochloride] | 34% | 3 nM | < 1000 nM |  |  |
| C[C@@H]1CN(CC(=O)N2CC(C)(C)c3ncc(Cc4ccc(F)cc4)cc32)[C@@H](CN2CC(C)(C)OC2=O)CN1 [Example 5, 3-{[(2R,5R)-1-(2-{6-[(4-Fluorophenyl)methyl]-3,3-dimethyl-1H,2H,3H-pyrrolo[3,2-b]pyridin-1-yl}-2-oxoethyl)-5-methylpiperazin-2-yl]methyl}-5,5-dimethyl-1,3-oxazolidin-2-one dihydrochloride] | 44% | 6.2 nM | < 1000 nM |  |  |
| CC1CC(=O)N(C[C@H]2CN[C@H](C)CN2CC(=O)N2CC(C)(C)c3ncc(Cc4ccc(F)cc4)cc32)C1 (stereo partly drawn) [Example 6, 1-{[(2R,5R)-1-(2-{6-[(4-Fluorophenyl)methyl]-3,3-dimethyl-1H,2H,3H-pyrrolo[3,2-b]pyridin-1-yl}-2-oxoethyl)-5-methylpiperazin-2-yl]methyl}-4-methylpyrrolidin-2-one dihydrochloride] | 48% | 1.1 nM | < 1000 nM |  |  |
| C[C@@H]1CN(CC(=O)N2CC(C)(C)c3ncc(Cc4ccc(F)cc4)cc32)[C@@H](CN2CC3(COC3)CC2=O)CN1 [Example 12, 6-{[(2R,5R)-1-(2-{6-[(4-Fluorophenyl)methyl]-3,3-dimethyl-1H,2H,3H-pyrrolo[3,2-b]pyridin-1-yl}-2-oxoethyl)-5-methylpiperazin-2-yl]methyl}-2-oxa-6-azaspiro[3.4]octan-7-one L-lactate] | 42% | 7.1 nM | < 1000 nM |  |  |
| C[C@@H]1CN(CC(=O)N2CC(C)(C)c3ncc(Cc4ccc(F)cc4)cc32)[C@@H](CN2Cc3ccncc3C2=O)CN1 [Example 19, 2-{[(2R,5R)-1-(2-{6-[(4-Fluorophenyl)methyl]-3,3-dimethyl-1H,2H,3H-pyrrolo[3,2-b]pyridin-1-yl}-2-oxoethyl)-5-methylpiperazin-2-yl]methyl}-1H,2H,3H-pyrrolo[3,4-c]pyridin-3-one, dihydrochloride] | 64% | 2.4 nM | < 1000 nM |  |  |
| C[C@@H]1CN(CC(=O)N2CC(C)(C)c3nnc(Cc4ccc(F)cc4F)cc32)[C@@H](CN2Cc3ccc(O)cc3C2=O)CN1 [Example 115, 2-{[(2R,5R)-1-(2-{3-[(2,4-Difluorophenyl)methyl]-7,7-dimethyl-5H,6H,7H-pyrrolo[3,2-c]pyridazin-5-yl}-2-oxoethyl)-5-methylpiperazin-2-yl]methyl}-6-hydroxy-2,3-dihydro-1H-isoindol-1-one dihydrochloride] | 78% |  |  |  |  |
| C[C@@H]1CN(CC(=O)N2CC(C)(C)c3ncc(Cc4ccc(F)cc4F)cc32)[C@@H](CN2Cc3ccc(O)cc3C2=O)CN1 [Example 116, 2-{[(2R,5R)-1-(2-{6-[(2,4-Difluorophenyl)methyl]-3,3-dimethyl-1H,2H,3H-pyrrolo[3,2-b]pyridin-1-yl}-2-oxoethyl)-5-methylpiperazin-2-yl]methyl}-6-hydroxy-2,3-dihydro-1H-isoindol-1-one dihydrochloride] | 79% |  |  |  |  |
| C[C@@H]1CN(CC(=O)N2CC(C)(C)c3nnc(Cc4ccc(F)cc4F)cc32)[C@@H](CN2Cc3c(O)cccc3C2=O)CN1 [Example 117, 2-{[(2R,5R)-1-(2-{3-[(2,4-Difluorophenyl)methyl]-7,7-dimethyl-5H,6H,7H-pyrrolo[3,2-c]pyridazin-5-yl}-2-oxoethyl)-5-methylpiperazin-2-yl]methyl}-4-hydroxy-2,3-dihydro-1H-isoindol-1-one dihydrochloride] | 78% |  |  |  |  |
